Patent publication US12083105B2, “Compositions and methods for treating adult-onset neuronal ceroid lipofuscinosis (Kufs disease)” (CORNELL UNIVERSITY, priority 2020, dated 2024)

How the values were obtained:
SNAP-25 = SNAP-25 levels in total lysate of CSPα−/− primary cortical neurons (quantitative immunoblotting, β-actin normalization); assay type: cell-based, mice; details: 200 μM, 72 h, FIG. 3D; for augmentation of SNAP-25 levels: neurons expressing CSPα^L115R and CSPα^L116Δ; for SNAP-25 levels: neurons expressing CSPα^WT or SSPα
Source text: For the experiments shown in FIGS. 3A-3E, primary cortical neurons from neonatal CSPα^−/− mice were infected with lentiviruses expressing Myc-tagged CSPα^WT, CSPα^L115R, CSPα^L116Δ, SSPα, or empty lentivirus (Control) on 7 days in vitro (DIV) and examined on 17 DIV. […] The lentivirus infected cells were stained using antibodies against Myc (green), somatodendritic marker MAP2 (red), and counterstained with nuclear stain DAPI (blue). […] Immunoprecipitation (IP) for SNAP-25 was followed by quantitative immunoblotting of the co-immunoprecipitated (co-IP'd) CSPα (top blot), and normalized to the IP'd SNAP-25 (bottom blot). IP: Control=sham IP without IgG. Palm=palmitoylated. […] The mutant CSPα signal was normalized to the amount of immunoprecipitated wilt type CSPα. N.D.=not detected. Representative data from of n=4 shown. […] Immunoprecipitation using anti-synaptobrevin-2 (Syb-2) antibody was followed by quantitative immunoblotting of co-IP'd SNARE-complex partners syntaxin-1 (Synt-1) and SNAP-25. IP: Control=sham IP with plain rabbit serum. […] The Synt-1 signal was normalized to the amount of each normalized to the IP'd Syb-2. Representative data from of n=4 shown. […] The SNAP-25 signal was normalized to the amount of each normalized to the IP'd Syb-2. For the experiments shown in FIGS. 3D-3E, CSPα^−/− primary cortical neurons were lentivirally infected to express Myc-tagged CSPα^WT, CSPα^L115R, CSPα^L116Δ, SSPα, or empty lentivirus (Control) on 5 DIV, and were treated on 12 DIV with vehicle (-=0.1% DMSO), or iron chelators deferiprone (L1=200 μM) and deferoxamine (Dfx=200 μM) for 72 h. […] Cell extracts were separated by SDS-PAGE, and subjected to quantitative immunoblotting using anti-SNAP-25 antibody and β-actin for normalization. To measure palmitoylation, oligomers were disrupted by lysing neurons in 0.1 N HCl plus 0.1% Triton X-100 for 20 min at 4° C., followed by SDS-PAGE and quantitative immunoblotting against CSPα. Representative immunoblots are shown. […] FIG. 3D (right panel) show quantitation of oligomers, palmitoylated CSPα, respectively, in corresponding lane and expressed as a percentage of total. […] Cell extracts were immunoprecipitated using a negative control or anti-Syb-2 antibody, followed by quantitative immunoblotting of the co-IP'd t-SNAREs SNAP-25 and Synt-1. […] In FIGS. 3B-3E data represent means±SEM. *P<0.05; **P<0.01; ***P<0.001; ****P<0.0001 by two-tailed Student's t-test. #P<0.05 by Mann-Whitney-Wilcoxon U test. n.s.=not significant; n.d.=not detected. […]
For SDS-PAGE, 10-15% Laemmli gels (10.3% T and 3.3% C) were used to separate proteins on Bio-Rad apparati. […] Immunoblots were washed 5× with TBS-T and dried, then scanned on Odyssey CLx (LI-COR) and quantified using Image-Studio software (LI-COR). […]

synaptic SNARE-complex = test: SNARE-complex assembly in primary neurons (Syb-2 immunoprecipitation, co-IP of Synt-1 and SNAP-25); assay type: cell-based, mice; details: CSPα^L115R and CSPα^L116Δ expressing neurons; 200 μM, 72 h; compared to vehicle only; FIG. 3E
Source text: For the experiments shown in FIGS. 3A-3E, primary cortical neurons from neonatal CSPα^−/− mice were infected with lentiviruses expressing Myc-tagged CSPα^WT, CSPα^L115R, CSPα^L116Δ, SSPα, or empty lentivirus (Control) on 7 days in vitro (DIV) and examined on 17 DIV. […] The lentivirus infected cells were stained using antibodies against Myc (green), somatodendritic marker MAP2 (red), and counterstained with nuclear stain DAPI (blue). […] Immunoprecipitation (IP) for SNAP-25 was followed by quantitative immunoblotting of the co-immunoprecipitated (co-IP'd) CSPα (top blot), and normalized to the IP'd SNAP-25 (bottom blot). IP: Control=sham IP without IgG. Palm=palmitoylated. […] N.D.=not detected. […] Immunoprecipitation using anti-synaptobrevin-2 (Syb-2) antibody was followed by quantitative immunoblotting of co-IP'd SNARE-complex partners syntaxin-1 (Synt-1) and SNAP-25. […] Cell extracts were separated by SDS-PAGE, and subjected to quantitative immunoblotting using anti-SNAP-25 antibody and β-actin for normalization. To measure palmitoylation, oligomers were disrupted by lysing neurons in 0.1 N HCl plus 0.1% Triton X-100 for 20 min at 4° C., followed by SDS-PAGE and quantitative immunoblotting against CSPα. […] FIG. 3D (right panel) show quantitation of oligomers, palmitoylated CSPα, respectively, in corresponding lane and expressed as a percentage of total. […]

| Compound | augmentation of SNAP-25 levels (SNAP-25) | SNAP-25 levels (SNAP-25) | level of co-immunoprecipitated Synt-1 and SNAP-25 (SNARE-complex assembly) (synaptic SNARE-complex) |
| --- | --- | --- | --- |
| CC(=O)N(O)CCCCCNC(=O)CCC(=O)N(O)CCCCCNC(=O)CCC(=O)N(O)CCCCCN [Dfx, N′-[5-(Acetyl-hydroxy-amino)pentyl]-N-[5-[3-(5-aminopentyl-hydroxy-carbamoyl)propanoylamino]pentyl]-N-hydroxy-butane diamide] | approximately two-fold | neither L1 nor Dfx affected SNAP-25 levels | increased level |
| Cc1c(O)c(=O)ccn1C [L1, 3-hydroxy-1,2-dimethyl-4(1H)-pyridone] | approximately two-fold | neither L1 nor Dfx affected SNAP-25 levels | increased level |
